The target in one data set is T1, OATP2B1 (Homo sapiens, UniProt O94956).
T1 construct: expressed in transfected cells; host or cells: HEK293 (recombinant baculovirus-mediated transduction)
T1 sequence (O94956 1-709): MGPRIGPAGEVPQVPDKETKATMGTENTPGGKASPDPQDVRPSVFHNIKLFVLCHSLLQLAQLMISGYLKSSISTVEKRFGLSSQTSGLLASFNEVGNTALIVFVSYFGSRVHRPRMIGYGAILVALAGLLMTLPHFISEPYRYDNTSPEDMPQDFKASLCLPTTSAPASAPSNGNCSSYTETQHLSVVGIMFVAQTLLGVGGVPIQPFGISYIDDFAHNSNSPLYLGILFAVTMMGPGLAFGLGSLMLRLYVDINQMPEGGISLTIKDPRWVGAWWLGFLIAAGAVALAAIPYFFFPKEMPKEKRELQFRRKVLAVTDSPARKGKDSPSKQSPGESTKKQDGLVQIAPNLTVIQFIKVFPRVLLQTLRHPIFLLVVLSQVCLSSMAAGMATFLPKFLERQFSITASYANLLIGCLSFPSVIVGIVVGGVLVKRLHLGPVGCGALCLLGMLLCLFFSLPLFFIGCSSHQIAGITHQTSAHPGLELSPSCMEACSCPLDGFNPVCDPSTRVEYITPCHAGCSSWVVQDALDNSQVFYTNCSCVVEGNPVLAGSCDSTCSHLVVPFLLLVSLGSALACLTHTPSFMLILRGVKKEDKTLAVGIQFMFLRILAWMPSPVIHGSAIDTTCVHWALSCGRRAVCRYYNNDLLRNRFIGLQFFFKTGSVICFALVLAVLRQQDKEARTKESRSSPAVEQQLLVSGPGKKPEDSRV
The data set is described as follows: OATP2B1 inhibition, rosuvastatin uptake into transporter-expressing HEK293 cells. The settings on record: for Calculated R-value OATP2B1 (hepatic): R = 1 + (I in,max,u/IC50), FDA cut-off ≥ 1.1; for Calculated R-value OATP2B1 (intestinal): R = I gut/IC50, FDA cut-off ≥ 10. Format: cell-based. As to the method:
The human transporters OATP1B1, OATP1B3, OATP2B1, and OAT1‐OAT4 and a negative control protein (enhanced yellow fluorescent protein, eYFP) were transiently expressed in human embryonic kidney 293 (HEK293) cells by recombinant baculovirus‐mediated transduction. Baculoviruses carrying human genes for the transporters were prepared as reported previously. HEK293 cells were cultured in DMEM containing 10% fetal bovine serum at 37°C and 5% CO2 and passaged two to three times per week. For the transport studies, 0.05 × 10^6 cells for 48‐well plates (OATPs) or 0.06 × 10^6 cells for 24‐well plates (OATs) were seeded onto cell‐culture treated well plates coated with poly‐D‐lysine. After 1 day, cells were transduced to produce recombinant proteins by changing media to DMEM containing 30 μL (48‐well plates) or 60 μL (24‐well plates) of recombinant baculovirus and 3 mM (OATs) or 5 mM (OATPs) sodium butyrate in a total media volume of 500 μL. The cells were cultured for a further 2 days before the transport assays.
For the transport studies, media were removed and cells were washed once with warm transport uptake buffer (TP‐buffer—pH 7.4 HBSS with 25 mM HEPES and 4 mM sodium bicarbonate). Each experiment included triplicate (OATP) or duplicate (OAT) samples for every test condition. The uptake was started by removing liquid from wells and applying warm TP‐buffer (200 μL for 24‐well plates or 125 μL for 48‐well plates) containing a test compound to cells. Transport assays were terminated after a pre‐specified incubation time (reported in figure legends) by removing substrate solution and washing cells three times with cold TP‐buffer (300 μL for 48‐well plates and 400 μL for 24‐well plates). For the liquid chromatography mass spectrometry (LC–MS) analysis, compounds were extracted from cells with 125 μL (48‐well plates) or 250 μL (24‐well plates) of an ultrapure‐water solution containing 75% methanol and 0.1% formic acid, shaking at 250 RPM for 30 min. […] Samples were transferred to well plates, centrifuged at 3000 g for 30 min, and transferred to a new well plate for the analysis.
In the OATP inhibition assays, inhibitors in warm TP‐buffer were directly applied to cells after media removal, followed by a 30‐min preincubation step in the presence of inhibitors. […] OAT1 and OAT3 cells were lysed with 200 μL of 1 M sodium hydroxide for 10 min, and 150 μL of these samples were transferred to a black well plate for fluorescein quantification. […]
For the inhibition data analysis, the average of measured concentrations in the control cells was subtracted from the average of measured concentrations in transporter‐expressing cells for each inhibitor concentration and then normalized to the vehicle sample that represents 100% transport activity. […]

A further data set has as its system T2, MRP4.
T2 construct: expressed in transfected cells; host or cells: HEK293 cells
The data set is described as follows: Efflux transport assay in MRP4 HEK293 membrane vesicles. Format: biochemical, human. The settings on record: 5 and 50 µM, 10 min.

Molecules are shown by their SMILES.

For `Cc1onc(-c2c(Cl)cccc2Cl)c1C(=O)N[C@@H]1C(=O)N2[C@@H]1SC(C)(C)[C@@H]2C(=O)O` [Dicloxacillin], at OATP2B1, the “Calculated R-value OATP2B1 (hepatic)” value is reported as 1.2 and the “Calculated R-value OATP2B1 (intestinal)” value is 240. In addition, in the data set with MRP4, the “transport by MRP4” value is reported as “did not transport”.
As for `Cc1onc(-c2c(F)cccc2Cl)c1C(=O)N[C@@H]1C(=O)N2[C@@H]1SC(C)(C)[C@@H]2C(=O)O` [Flucloxacillin], on OATP2B1, the “Calculated R-value OATP2B1 (hepatic)” value is listed as 1.2 and the “Calculated R-value OATP2B1 (intestinal)” value is given as 137. In the data set with MRP4, the “transport by MRP4” value is listed as “did not transport”.

The values are drawn from publication PMC12865225 (Clinical and Translational Science, 2026).
